# Measurements published in patent publication US7022737B2, “Manipulating nitrosative stress to kill pathologic microbes, pathologic helminths and pathologically proliferating cells or to upregulate nitrosative stress defenses” (Duke University, priority 1996, dated 2006).
# What was measured:
# [1] = molecular target: T1, E. coli gamma-glutamylcysteine synthetase (Escherichia coli, UniProt P0A6W9); experiment: Inactivation of E. coli gamma-GCS by homocysteine sulfoximines (preincubation with ATP, residual activity by coupled PK/LDH assay); assay type: biochemical; details: 100 μM inhibitor
# T1 construct: made in house
# Description: E. coli gamma-GCS was isolated from bacterial cells engineered to overexpress the enzyme; the isolation procedure was similar to that used previously to isolate mammalian gamma-GCS. […] The enzyme was assayed in reaction mixtures (final volume=1.0 ml) containing: 150 mM Tris·HCl, pH 8.2, 100 mM KCl, 25 mM MgCl2, 7.5 mM ATP, 7.5 mM phosphoenolpyruvate, 0.3 mM EDTA, 10 mM L-glutamate, 10 mM L-α-aminobutyrate (an L-cysteine analog), 0.3 mM NADH, 5 IU pyruvate kinase, and 5 IU lactate dehydrogenase. Reaction was initiated by adding gamma-GCS; in control studies, L-α-aminobutyrate was omitted from the reaction mixture. In this assay, pyruvate kinase (PK) and lactate dehydrogenase (LDH) are added in excess to detect formation of ADP, one of the products of the gamma-GCS reaction. The relevant enzyme reactions are shown as equations 1–3 below. Oxidation of NADH to NAD^+ is followed and quantitated spectrophotometrically at 340 nm (1 μmol oxidation gives ΔOD=−6.2) and is directly proportional to product formation by gamma-GCS. [drawing 2]
# Inhibition by homocysteine sulfoximines was carried out by preincubating the E. coli gamma-GCS with potential inhibitors in the presence of ATP and then removing aliquots of that mixture at specific times and assaying for residual activity using the assay procedure described above. The preincubation reaction mixtures contained (final volume=400 μl) the following: 210 mM Tris·HCl, pH 8.2, 142 mM KCl, 36 mM MgCl2, 10 mM ATP, 0.4 mM EDTA, various amounts of sulfoximine, and gamma-GCS. At intervals, 50 μl aliquots were removed and added to 1.0 ml assay reaction mixtures to determine residual activity spectrophotometrically. Results of a study indicate that E. coli gamma-GCS loses about 27% of its activity over 30 minutes in the absence of added inhibitors; this loss of activity represents an inherent instability in the enzyme when incubated under these reaction conditions in this particular experiment. […]
# [2] = system: benign prostatic hypertrophy; experiment: Patients with benign prostatic hypertrophy; assay type: in vivo
# Text: A person presents with a history of urinary hesitancy and multiple awakenings during the night. They are given a diagnosis of benign prostatic hypertrophy. Under stereotactic guidance, the patient's enlarged prostate gland is implanted with several porus polymer pellets designed to slowly release L-buthionine-S-sulfoximine (1 μmol/hr) and S-nitrosocysteine (1 μmol/hr). […] They then have nearly normal urine flow and usually wakes no more than once per night.
# A similar patient with benign prostatic hypertrophy and very marked enlargement of their prostate is treated with NO-substituted finasteride (NO-substituted Proscar; 5 mg/day). NO-substitution is accomplished by replacement of the tert-butyl amine moiety of finasteride with S-nitroso-β-thio-tert-butyl amine.
# A person with benign prostatic hypertrophy is treated with Finisteride (Proscar: 5 mg/day) and oral buthionine-S-sulfoximine at a dose of 10 mmol/kg four time/day.
# trypanosomes = experiment: Patient with trypanosome infection; assay type: in vivo; details: L-buthionine-S-sulfoximine 3 mmol/kg p.o. every 4 hours and S-nitrosoglutathione iv 10 mg/kg every 8 hours, one week
# Description: A person presents with high fever, moderate lymphadenopathy and reports that they have lost 40 pounds in the last month, two months after returning from a safari in sub-Saharan Africa. On questioning, the patient reports having developed during the safari an ulcer on their forearm two days following a bite by a fly. […] The patient is hospitalized and given L-buthionine-S-sulfoximine at a dose of 3 mmol/kg p.o. every 4 hours for one week. In addition, the patient receives S-nitrosoglutathione iv at a dose of 10 mg/kg every 8 hours for one week.
# T1 sequence (P0A6W9 whole entry): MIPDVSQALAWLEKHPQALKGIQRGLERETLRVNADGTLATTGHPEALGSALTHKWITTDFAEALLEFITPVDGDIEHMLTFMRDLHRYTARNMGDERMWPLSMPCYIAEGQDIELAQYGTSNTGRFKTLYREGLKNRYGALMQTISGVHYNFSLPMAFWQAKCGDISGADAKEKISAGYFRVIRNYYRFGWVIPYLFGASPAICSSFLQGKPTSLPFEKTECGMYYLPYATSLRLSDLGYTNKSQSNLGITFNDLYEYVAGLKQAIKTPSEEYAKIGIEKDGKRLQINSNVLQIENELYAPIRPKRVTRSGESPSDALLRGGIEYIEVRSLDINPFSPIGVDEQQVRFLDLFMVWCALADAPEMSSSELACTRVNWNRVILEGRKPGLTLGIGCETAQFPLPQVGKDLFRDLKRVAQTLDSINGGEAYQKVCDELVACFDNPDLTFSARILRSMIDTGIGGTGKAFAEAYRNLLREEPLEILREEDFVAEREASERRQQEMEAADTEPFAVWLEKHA
smiles,measurement,setting,value
CCCCS(=N)(=O)CC[C@H](N)C(=O)O (stereo partly drawn) [L-buthionine-S-sulfoximine],inactivation of E. coli gamma-GCS,[1]; 10 min preincubation,89%
same,inactivation of E. coli gamma-GCS,[1]; 30 min preincubation,virtually complete inactivation
same,clinical outcome,[2]; Finisteride 5 mg/day and oral buthionine-S-sulfoximine 10 mmol/kg four time/day,symptoms of hesitancy improve significantly over two months
same,clinical outcome,[2]; prostate-implanted polymer pellets releasing each agent at 1 μmol/hr,symptoms improve over a period of three weeks
same,clinical outcome,trypanosomes,blood smear is free of trypanosomes
